Measured values: patent publication US20040138193A1, “Oestrogen fatty acid monoester as a hypolipidaemic and antidiabetic agent” (priority 2001, published 2004)

Key:
[1] = system: genetically obese adult female Zucker rats (genotype fa/fa); assay: Plasma lipoproteinogram (polyacrylamide gel electrophoresis), obese rats; type: in vivo, rat; settings: 10 micromols per kg daily, 10 days
Procedure: FIG. 2 is a lipoproteinogram analogous to the one of FIG. 1, but using obese rats (Zucker fa/fa).
Since treatment with oleoyl-estrone deeply modifies the plasma lipids of rats, an experiment was carried out to determine whether the oral administration of oleoyl-estrone modifies the plasma lipidogram of lean and genetically obese rats. Two groups of animals were used: (1) normal-weight adult female Zucker rats (genotype Fa/?), and (2) genetically obese adult female Zucker rats (genotype fa/fa). In the first group one rat was killed to obtain a sample of blood (intact control); in the second group (obese rats), two intact controls were killed and their blood recovered. All the remaining rats were kept under standard housing conditions, with free access to food and water; the rats receivid a daily gavage of 0.2 ml of sunflower oil by means of a stomach tube; in three rats form each group, the oil was supplemented with enough oleoyl-estrone to achieve a daily dose of 10 micromols per kg of rat weight. After 10 days of treatment, the rats were killed, and their blood was recovered. All blood samples were centrifuged to obtain plasma; plasma proteins were analysed by means of polyacrylamide gel electroforesis (kit Lipofilm, Sebia, Issy les Molineaux, France), lipids were stained with Sudan black.

lipoprotein lipase = assay: Lipoprotein lipase activity in plasma and tissues of treated lean and obese rats; type: in vivo, rat; settings: for Lipoprotein-lipase activity, WAT mesenteric, whole tissue of the rat / Lipoprotein-lipase activity, WAT periovaric, whole tissue of the rat / Lipoprotein-lipase activity, Muscle, whole tissue of the rat: 10 μmol/kg · d; for Lipoprotein-lipase activity, WAT mesenteric, whole tissue of the rat: calculated assuming all WAT had the specific activity of mesenteric WAT; for Lipoprotein-lipase activity, WAT periovaric, whole tissue of the rat: calculated assuming all WAT had the specific activity of periovaric WAT; for Lipoprotein-lipase activity, Liver, per gram of tissue protein / Lipoprotein-lipase activity, Liver, per unit of tissue weight / Lipoprotein-lipase activity, Liver, whole organ of the rat / Lipoprotein-lipase activity, Muscle, per gram of tissue protein / Lipoprotein-lipase activity, Muscle, per unit of tissue weight / Lipoprotein-lipase activity, Plasma / Lipoprotein-lipase activity, Plasma, per gram of protein / Lipoprotein-lipase activity, WAT mesenteric, per gram of tissue protein / Lipoprotein-lipase activity, WAT mesenteric, per unit of tissue weight / Lipoprotein-lipase activity, WAT periovaric, per gram of tissue protein / Lipoprotein-lipase activity, WAT periovaric, per unit of tissue weight / Lipoprotein-lipase activity, Plasma, whole compartment of the rat: daily gavage 10 μmol/kg · d; for Lipoprotein-lipase activity, Plasma, whole compartment of the rat: plasma mass taken as 2.75% of body weight; for overall lipoprotein lipase activity in the rat (muscle + liver + plasma + WAT): rough estimate
Procedure: Liver, muscle and WAT (white adipose tissue) samples were homogenized in 10 mM hepes buffer pH 7.5, containing 250 mM sucrose, 1 MM-EDTA and 1 mM dithiothreitol in order to measure lipoprotein lipase activity in tissues. Homogenates were clarified by centrifugation (10 min at 10,000×g) at 4° C. The assay mixture (pH 7.5) contained 0.6 mM tri-[9,10(n)-^3H]-oleoyl-glycerol, 50 mM MgCl2, 0.5 g/L albumin (fatty acid-free), 3 ml/L preheated (60 min at 50° C.)rat serum, 25 mM PIPES buffer and 0.02 ml of sample in a final volume of 0.2 ml; the incubation was carried out for 30 min at 25° C.; after the reaction was stopped, the [^3H]-oleate evolved was quantified. All measurements of lipoprotein lipase activity in plasma and liver homogenates were carried out in the presence of anti-rat hepatic lipase antiserum. The homogenate and plasma protein content were determined with the Bradford method.
The enzyme activity was expressed in nkat/L of plasma of nkat/kg of tissue; the values were also referred to plasma or tissue protein content. The overall share of potential activity of the enzymes studied was also estimated by determining the contribution of each organ/tissue: plasma, liver and WAT (white adipose tissue) enzyme activity in relation to body mass. The results are expressed as the total activity found per kg of body weight in a given tissue or compartment. The liver was directly weighed (3.38±0.10% of BW (body weight) for lean and 3.17±0.13% of BW for the obese). The mass of plasma was taken as a 2.75% of body weight (blood being 5% of body weight, and packed cell volume 45% of that value). Overall WAT lipoprotein lipase activity in both groups of animals was calculated using the mean values for either the periovaric or mesenteric locations of both sets of data and the proportions of WAT published for lean [15% of BW] control and oleoyl-estrone-treated [7% of BW] and obese Zucker fa/fa rat [35% BW] control and oleoyl-estrone-treated [28% BW]. Muscle mass was calculated also as a proportion of body weight: 43% for lean and 33 for obese rats.
Statistical analysis of the differences between groups was established using ANOVA programs and the Student's t test.

Zucker fa/fa rat = assay: Plasma parameters after 10 days of daily oral gavage in Zucker fa/fa rats (type 2 diabetes model); type: in vivo; settings: for plasma 3-hydroxybutyrate / plasma non-esterified fatty acids / plasma glucose / plasma insulin / plasma total cholesterol / plasma triacylglycerols: 10 days
Procedure: A study was carried out using the Zucker fa/fa rat as experimental animal model for type 2 diabetes. In these rats a marked insulin resistance is known; their circulating glucose levels are somewhat higher than in normal rats, but their insulin levels are much higher and show marked hypertriacylglycerolemia and hypercholesterolemia. Four groups of adult Zucker fa/fa rats were used, two groups of 6 male rats each and two groups of 6 female rats each. For each sex, the first group was used as control and the other was treated with the drug. All rats were kept under standard housing conditions, with free access to water and pellet food. The animals received a daily gavage of 0.2 ml of sunflower oil by means of a stomach tube. In the treated-rat groups, the oil contained enough oleoyl-estrone dissolved to provide a daily dose of 10 micromol per kg of rat weight. After 10 days of daily gavages, the rats were killed and their blood was recovered, being used to obtain plasma by centrifugation. Plasma samples were used for the analysis of glucose, total cholesterol and triacylglycerols by means of a dry-strip procedure (Spotchem, Menarini, Firenze, Italy), the levels of 3-hydroxybutyrate were measured with the kit 907979 from Boehringer Mannheim (Mannheim, Germany), and non-esterified fatty acids with the kit 1383175 from the same company. Insulin levels were measured through radioimmunoassay (rat insulin kit, Amersham, Amersham, United Kingdom).

[2] = Zucker fa/fa rats, oral treatment vs controls
[3] = Zucker fa/fa rats, oral treatment vs controls, P<0.05
[4] = female obese Zucker fa/fa rats, 10 μmol/kg · d oral gavage
[5] = female obese Zucker fa/fa rats, 10 mol/kg · d oral gavage
[6] = male obese Zucker fa/fa rats, 10 μmol/kg · d oral gavage

effect on lipoprotein lipase activity in plasma (lipoprotein lipase; lean rats, vs controls): generalized rise | effect on lipoprotein lipase activity of the tissues studied (lipoprotein lipase; lean rats, vs controls): did not affect significantly | change of lipoprotein lipase activity in skeletal muscle (lipoprotein lipase; obese rats, vs control): increased fourfold | effect on lipoprotein lipase activity in WAT (lipoprotein lipase; obese rats, vs controls): decreases | effect on lipoprotein lipase activity in liver (lipoprotein lipase; obese rats, vs controls): no changes | effect on lipoprotein lipase activity in plasma (lipoprotein lipase; obese rats, vs controls): increases
Compound: CCCCCCCC/C=C\CCCCCCCC(=O)Oc1ccc2c(c1)CC[C@@H]1[C@@H]2CC[C@]2(C)C(=O)CC[C@@H]12 [oleoyl-estrone]
lipoprotein pattern in lipoproteinogram [1]: this same pattern is repeated, but there is an additional wide band between the LDL and VLDL zones | overall loss of lipoprotein lipase because of treatment (lipoprotein lipase; lean animals, vs control): 37% | Lipoprotein-lipase activity, WAT mesenteric, whole tissue of the rat (lipoprotein lipase; lean rats): 133 ± 64 nkat/rat | Lipoprotein-lipase activity, WAT periovaric, whole tissue of the rat (lipoprotein lipase; lean rats): 33.2 ± 5.0 nkat/rat | Lipoprotein-lipase activity, Muscle, whole tissue of the rat (lipoprotein lipase; lean rats, muscle mass calculated as 43% of body weight): 8.79 ± 0.72 nkat/rat | Lipoprotein-lipase activity, Liver, per gram of tissue protein (lipoprotein lipase; lean rats): 1.74 ± 0.32 nkat/g P | Lipoprotein-lipase activity, Liver, per unit of tissue weight (lipoprotein lipase; lean rats): 204 ± 48 pkat/g | Lipoprotein-lipase activity, Liver, whole organ of the rat (lipoprotein lipase; lean rats): 1.12 ± 0.34 nkat/rat | Lipoprotein-lipase activity, Muscle, per gram of tissue protein (lipoprotein lipase; lean rats): 3.09 ± 0.57 nkat/g P | Lipoprotein-lipase activity, Muscle, per unit of tissue weight (lipoprotein lipase; lean rats): 110.3 ± 41.3 pkat/g | Lipoprotein-lipase activity, Plasma (lipoprotein lipase; lean rats): 11.76 ± 1.75 pkat/mL | Lipoprotein-lipase activity, Plasma, per gram of protein (lipoprotein lipase; lean rats): 147.8 ± 18.9 pkat/g P | Lipoprotein-lipase activity, WAT mesenteric, per gram of tissue protein (lipoprotein lipase; lean rats): 779 ± 384 nkat/g P | Lipoprotein-lipase activity, WAT mesenteric, per unit of tissue weight (lipoprotein lipase; lean rats): 10.25 ± 4.94 nkat/g | Lipoprotein-lipase activity, WAT periovaric, per gram of tissue protein (lipoprotein lipase; lean rats): 317 ± 111 nkat/g P | Lipoprotein-lipase activity, WAT periovaric, per unit of tissue weight (lipoprotein lipase; lean rats): 2.56 ± 0.39 nkat/g | Lipoprotein-lipase activity, Plasma, whole compartment of the rat (lipoprotein lipase; lean rats): 59.2 ± 11.6 pkat/rat | overall lipoprotein lipase activity in the rat (muscle + liver + plasma + WAT) (lipoprotein lipase; lean treated rats): 152 nkat | decrease in mesenteric WAT lipoprotein lipase (lipoprotein lipase; lean, vs control): 64% | decrease in periovaric WAT lipoprotein lipase (lipoprotein lipase; lean, vs control): 45% | overall loss of lipoprotein lipase because of treatment (lipoprotein lipase; obese animals, vs control): 51% | Lipoprotein-lipase activity, WAT mesenteric, whole tissue of the rat (lipoprotein lipase; obese rats): 129 ± 27 nkat/rat | Lipoprotein-lipase activity, WAT periovaric, whole tissue of the rat (lipoprotein lipase; obese rats): 135 ± 19 nkat/rat | Lipoprotein-lipase activity, Muscle, whole tissue of the rat (lipoprotein lipase; obese rats, muscle mass calculated as 33% of body weight): 152 ± 18 nkat/rat | Lipoprotein-lipase activity, Liver, per gram of tissue protein (lipoprotein lipase; obese rats): 1.41 ± 0.21 nkat/g P | Lipoprotein-lipase activity, Liver, per unit of tissue weight (lipoprotein lipase; obese rats): 182 ± 27 pkat/g | Lipoprotein-lipase activity, Liver, whole organ of the rat (lipoprotein lipase; obese rats): 2.48 ± 0.26 nkat/rat | Lipoprotein-lipase activity, Muscle, per gram of tissue protein (lipoprotein lipase; obese rats): 40.8 ± 4.4 nkat/g P | Lipoprotein-lipase activity, Muscle, per unit of tissue weight (lipoprotein lipase; obese rats): 1383 ± 168 pkat/g | Lipoprotein-lipase activity, Plasma (lipoprotein lipase; obese rats): 7.19 ± 1.76 pkat/mL | Lipoprotein-lipase activity, Plasma, per gram of protein (lipoprotein lipase; obese rats): 107.1 ± 23.6 pkat/g P | Lipoprotein-lipase activity, WAT mesenteric, per gram of tissue protein (lipoprotein lipase; obese rats): 1767 ± 420 nkat/g P | Lipoprotein-lipase activity, WAT mesenteric, per unit of tissue weight (lipoprotein lipase; obese rats): 1.40 ± 0.29 nkat/g | Lipoprotein-lipase activity, WAT periovaric, per gram of tissue protein (lipoprotein lipase; obese rats): 245 ± 51 nkat/g P | Lipoprotein-lipase activity, WAT periovaric, per unit of tissue weight (lipoprotein lipase; obese rats): 1.46 ± 0.21 nkat/g | Lipoprotein-lipase activity, Plasma, whole compartment of the rat (lipoprotein lipase; obese rats): 51.4 ± 9.3 pkat/rat | overall lipoprotein lipase activity in the rat (muscle + liver + plasma + WAT) (lipoprotein lipase; obese treated rats): 338 nkat | decrease in mesenteric WAT lipoprotein lipase (lipoprotein lipase; obese, vs control): 87% | decrease in periovaric WAT lipoprotein lipase (lipoprotein lipase; obese, vs control): 56% | change in 3-hydroxybutyrate (Zucker fa/fa rat; [2]): no changes | change in insulin levels (Zucker fa/fa rat; [2]): marked decrease | change in non-esterified fatty acids (Zucker fa/fa rat; [2]): no changes | change in plasma concentration of glucose (Zucker fa/fa rat; [3]): significant decreases | change in plasma concentration of total cholesterol (Zucker fa/fa rat; [3]): significant decreases | change in plasma concentration of triacylglycerols (Zucker fa/fa rat; [3]): significant decreases | plasma 3-hydroxybutyrate (Zucker fa/fa rat; [4]): 187 ± 26 µM | plasma non-esterified fatty acids (Zucker fa/fa rat; [4]): 642 ± 52 µM | plasma glucose (Zucker fa/fa rat; [5]): 4.91 ± 0.17 mM | plasma insulin (Zucker fa/fa rat; [5]): 1.78 ± 0.21 nM | plasma total cholesterol (Zucker fa/fa rat; [5]): 1.59 ± 0.29 mM | plasma triacylglycerols (Zucker fa/fa rat; [5]): 1.80 ± 0.17 mM | plasma 3-hydroxybutyrate (Zucker fa/fa rat; [6]): 281 ± 31 µM | plasma glucose (Zucker fa/fa rat; [6]): 6.14 ± 0.13 mM | plasma insulin (Zucker fa/fa rat; [6]): 1.11 ± 0.12 nM | plasma non-esterified fatty acids (Zucker fa/fa rat; [6]): 720 ± 110 µM | plasma total cholesterol (Zucker fa/fa rat; [6]): 1.77 ± 0.26 mM | plasma triacylglycerols (Zucker fa/fa rat; [6]): 1.88 ± 0.19 mM
